Reference: paper PMC6366420, “Design and synthesis of 4-piperazinyl quinoline derived urea/thioureas for anti-breast cancer activity by a hybrid pharmacophore approach” (Journal of Enzyme Inhibition and Medicinal Chemistry, 2019)
Read-outs that look alike come from different tables or passages of the source.

Tests used:
184B5 = experiment: SRB antiproliferative assay, 184B5 non-cancer breast cells; assay type: cell-based, human; conditions: read-out: GI50 184B5
Description: (§1) The human breast cancer cell lines MDA-MB468, MDA-MB231 and MCF-7 were purchased from ATCC and maintained in RPMI 1640 medium supplemented with 10% fetal bovine serum (Hyclone, Logan UT) and 2 mM L-glutamine. MCF10A and 184B5 immortalised breast cells were purchased from ATCC and maintained in mammary epithelial basal medium supplemented with an MEGM mammary epithelial singlequot kit (Cambrex). Cells were grown at 37 °C with 5% CO2, 95% air under the humidified conditions. Cell line authentication was carried out by Genetica DNA Laboratories (Burlington, NC) using a short tandem repeat profiling method (March 2015; July 2015; September 2016).
(§2) Cell cytotoxic effects were determined by a SRB-based protocol[2]^,[25].
(§3) The newly synthesised 4-piperazinylquinoline compounds (5–30) were evaluated for their antiproliferative effects using three breast cancer cell lines, for which the compounds were diluted to achieve seven different concentrations ranging from […]. Followed by 48 h incubation with the compound, cells were treated with sulforhodamine B (SRB) to measure their growth/viability (% of the untreated control) by spectrophotometer. The total cellular macromolecules levels known to accurately reflect by UV reading of SRB staining. […] The reference compounds CQ and cisplatin were included for the comparison.
(§4) We further assessed their antiproliferative effects on two non-cancer immortalised cell lines (184B5 and MCF10A). […] The antiproliferative effects of compound 23 on cancer cells are thus 7-fold (MDA-MB468 vs MCF10A) to 11-fold (MDA-MB231 vs 184B5) higher than matching non-cancer breast cells, which may indicate that compound 23 could potentially be safer than other compounds. Therefore, we examined it further to gain insights into its molecular mechanism of action.

MCF7 = experiment: SRB antiproliferative assay, MCF7; assay type: cell-based, human; conditions: read-out: GI50 MCF7
Description: as §1, §2, §3

MCF10A = experiment: SRB antiproliferative assay, MCF10A non-cancer breast cells; assay type: cell-based, human; conditions: read-out: GI50 MCF10A
Description: as §1, §2, §3, §4

[1] = system: breast cancer and non-cancer breast cell lines; experiment: SRB antiproliferative comparison of breast cancer and non-cancer breast cell lines; assay type: cell-based, human; conditions: for antigrowth effect against cancer versus non-cancer cells (in words): three breast cancer lines vs 184B5 and MCF10A; for higher activity than the reference compounds cisplatin and CQ: breast cancer cell lines, GI50 comparison
Description: as §1, §2, §3, §4

MDA-MB231 = experiment: SRB antiproliferative assay, MDA-MB231; assay type: cell-based, human; conditions: read-out: GI50 MDA-MB231
Description: as §1, §2, §3

MDA-MB468 = experiment: SRB antiproliferative assay, MDA-MB468; assay type: cell-based, human; conditions: read-out: GI50 MDA-MB468
Description: as §1, §2, §3

[2] = Homo sapiens, SRB, 48 h incubation, 184B5 non-cancer immortalised breast cells
[3] = Homo sapiens, SRB, 48 h incubation, MCF7 breast cancer cells
[4] = Homo sapiens, MCF-10A, SRB, 48 h incubation, MCF10A non-cancer immortalised breast cells
[5] = Homo sapiens, MDA-MB-231, 48 h, SRB, 48 h incubation, MDA-MB231 triple-negative breast cancer cells
[6] = Homo sapiens, MDA-MB-468, 48 h, SRB, 48 h incubation, MDA-MB468 breast cancer cells

## FC(F)(F)c1ccc2c(N3CCN(C(=S)Nc4ccccc4)CC3)ccnc2c1 [Compound 24, 4-(7-Trifluoromethyl-quinolin-4-yl)-piperazine-1-carbothioic acid phenylamide]
184B5; [2]
  GI50: 24.4 ± 2 µM
MCF7; [3]
  GI50: 7.5 ± 0.6 µM
MCF10A; [4]
  GI50: 34.2 ± 1.3 µM
[1]
  antigrowth effect against cancer versus non-cancer cells (in words): much stronger activities against cancer than non-cancer cells
other
  melting point: 187 to 188 °C
MDA-MB231; [5]
  GI50: 13.8 ± 0.8 µM
MDA-MB468; [6]
  GI50: 14.1 ± 0.9 µM

## Cc1cccc(C)c1NC(=S)N1CCN(c2ccnc3cc(C(F)(F)F)ccc23)CC1 [Compound 25, 4-(7-Trifluoromethyl-quinolin-4-yl)-piperazine-1-carbothioic acid (2,6-dimethyl-phenyl)-amide]
184B5; [2]
  GI50: 21.4 ± 1.3 µM
MCF7; [3]
  GI50: 5.2 ± 0.5 µM
MCF10A; [4]
  GI50: 14.1 ± 1.5 µM
[1]
  antigrowth effect against cancer versus non-cancer cells (in words): comparable against cancer and non-cancer cells
other
  melting point: 105 to 106 °C
MDA-MB231; [5]
  GI50: 22.2 ± 1.7 µM
MDA-MB468; [6]
  GI50: 13.3 ± 0.3 µM

## O=C(Nc1ccccc1)N1CCN(c2ccnc3cc(Cl)ccc23)CC1 [Compound 5, 4-(7-Chloro-quinolin-4-yl)-piperazine-1-carboxylic acid phenylamide]
184B5; [2]
  GI50: 14.1 ± 0.9 µM
MCF7; [3]
  GI50: 6.6 ± 0.6 µM
MCF10A; [4]
  GI50: 11.8 ± 1.4 µM
[1]
  higher activity than the reference compounds cisplatin and CQ: 4-8 fold
  antigrowth effect against cancer versus non-cancer cells (in words): much stronger activities against cancer than non-cancer cells
other
  melting point: 142 to 143 °C
MDA-MB231; [5]
  GI50: 5.3 ± 0.5 µM
MDA-MB468; [6]
  GI50: 4.7 ± 0.5 µM

## FC(F)(F)c1ccc2c(N3CCN(C(=S)NCCN4CCOCC4)CC3)ccnc2c1 [Compound 30, 4-(7-Trifluoromethyl-quinolin-4-yl)-piperazine-1-carbothioic acid (2-morpholin-4-yl-ethyl)-amide]
184B5; [2]
  GI50: 17.4 ± 1 µM
MCF7; [3]
  GI50: 6.2 ± 0.7 µM
MCF10A; [4]
  GI50: 18.9 ± 1.3 µM
[1]
  antigrowth effect against cancer versus non-cancer cells (in words): much stronger activities against cancer than non-cancer cells
other
  melting point: 134 to 135 °C
MDA-MB231; [5]
  GI50: 11.8 ± 0.9 µM
MDA-MB468; [6]
  GI50: 14.2 ± 0.6 µM

## O=C(Nc1ccc(C(F)(F)F)cc1)N1CCN(c2ccnc3cc(Cl)ccc23)CC1 [Compound 7, 4-(7-Chloro-quinolin-4-yl)-piperazine-1-carboxylic acid (4-trifluoromethyl-phenyl)-amide]
184B5; [2]
  GI50: 4.7 ± 0.3 µM
MCF7; [3]
  GI50: 16.6 ± 1.2 µM
MCF10A; [4]
  GI50: 4.6 ± 0.3 µM
[1]
  antigrowth effect against cancer versus non-cancer cells (in words): higher activity against non-cancer cells than cancer cells
MDA-MB231; [5]
  GI50: 21.8 ± 1.5 µM
MDA-MB468; [6]
  GI50: 19.8 ± 0.8 µM

## FC(F)(F)c1ccc(NC(=S)N2CCN(c3ccnc4cc(C(F)(F)F)ccc34)CC2)cc1 [Compound 26, 4-(7-Trifluoromethyl-quinolin-4-yl)-piperazine-1-carbothioic acid (4-trifluoromethyl-phenyl)-amide]
184B5; [2]
  GI50: 8.8 ± 0.6 µM
MCF7; [3]
  GI50: 3.8 ± 0.3 µM
MCF10A; [4]
  GI50: 10.7 ± 2 µM
[1]
  antigrowth effect against cancer versus non-cancer cells (in words): comparable against cancer and non-cancer cells
other
  melting point: 123 to 124 °C
MDA-MB231; [5]
  GI50: 16.5 ± 1.2 µM
MDA-MB468; [6]
  GI50: 23.4 ± 0.9 µM

## O=C(Nc1ccc(C(F)(F)F)cc1)N1CCN(c2ccnc3cc(C(F)(F)F)ccc23)CC1 [Compound 13, 4-(7-Trifluoromethyl-quinolin-4-yl)-piperazine-1-carboxylic acid (4-trifluoromethyl-phenyl)-amide]
184B5; [2]
  GI50: 1.1 ± 0.1 µM
MCF7; [3]
  GI50: 2 ± 0.1 µM
MCF10A; [4]
  GI50: 1 ± 0.1 µM
[1]
  antigrowth effect against cancer versus non-cancer cells (in words): higher activity against non-cancer cells than cancer cells
other
  melting point: 154 to 155 °C
MDA-MB231; [5]
  GI50: 15.3 ± 1.3 µM
MDA-MB468; [6]
  GI50: 2.7 ± 0.1 µM

## FC(F)(F)c1ccc2c(N3CCN(C(=S)Nc4ccc(Cl)cc4)CC3)ccnc2c1 [Compound 27, 4-(7-Trifluoromethyl-quinolin-4-yl)-piperazine-1-carbothioic acid (4-chloro-phenyl)-amide]
184B5; [2]
  GI50: 7.9 ± 0.6 µM
MCF7; [3]
  GI50: 7 ± 0.7 µM
MCF10A; [4]
  GI50: 9.2 ± 1 µM
[1]
  antigrowth effect against cancer versus non-cancer cells (in words): comparable against cancer and non-cancer cells
other
  melting point: 165 to 166 °C
MDA-MB231; [5]
  GI50: 18.7 ± 2.3 µM
MDA-MB468; [6]
  GI50: 11.8 ± 1.6 µM

## FC(F)(F)c1ccc2c(N3CCN(C(=S)Nc4cccc5ccccc45)CC3)ccnc2c1 [Compound 29, 4-(7-Trifluoromethyl-quinolin-4-yl)-piperazine-1-carbothioic acid naphthalen-1-ylamide]
184B5; [2]
  GI50: 50.6 ± 3.8 µM
MCF7; [3]
  GI50: 6.4 ± 0.7 µM
MCF10A; [4]
  GI50: 69.4 ± 3.7 µM
[1]
  higher activity than the reference compounds cisplatin and CQ: 4-8 fold
  antigrowth effect against cancer versus non-cancer cells (in words): much stronger activities against cancer than non-cancer cells
other
  melting point: 137 to 138 °C
MDA-MB231; [5]
  GI50: 9.8 ± 1 µM
MDA-MB468; [6]
  GI50: 9.4 ± 0.8 µM

## FC(F)(F)c1ccc2c(N3CCN(C(=S)Nc4c(Cl)cc(Cl)cc4Cl)CC3)ccnc2c1 [Compound 28, 4-(7-Trifluoromethyl-quinolin-4-yl)-piperazine-1-carbothioic acid (2,4,6-trichloro-phenyl)-amide]
184B5; [2]
  GI50: 5.5 ± 0.5 µM
MCF7; [3]
  GI50: 11.8 ± 1 µM
MCF10A; [4]
  GI50: 8.2 ± 0.7 µM
[1]
  antigrowth effect against cancer versus non-cancer cells (in words): higher activity against non-cancer cells than cancer cells
other
  melting point: 112 to 114 °C
MDA-MB231; [5]
  GI50: 12.2 ± 0.9 µM
MDA-MB468; [6]
  GI50: 23.4 ± 1.9 µM

## Cc1ccc(C)c(NC(=O)N2CCN(c3ccnc4cc(Cl)ccc34)CC2)c1 [Compound 6, 4-(7-Chloro-quinolin-4-yl)-piperazine-1-carboxylic acid (2,5-dimethyl-phenyl)-amide]
184B5; [2]
  GI50: 19.8 ± 1 µM
MCF7; [3]
  GI50: 28.9 ± 1.4 µM
MCF10A; [4]
  GI50: 18.8 ± 1.3 µM
[1]
  antigrowth effect against cancer versus non-cancer cells (in words): higher activity against non-cancer cells than cancer cells
other
  melting point: 118 to 119 °C
MDA-MB231; [5]
  GI50: 50.6 ± 3.2 µM
MDA-MB468; [6]
  GI50: 35.5 ± 1.3 µM

## FC(F)(F)c1ccc(NC(=S)N2CCN(c3ccnc4cc(Cl)ccc34)CC2)cc1 [Compound 19, 4-(7-Chloro-quinolin-4-yl)-piperazine-1-carbothioic acid (4-trifluoromethyl-phenyl)-amide]
184B5; [2]
  GI50: 3.7 ± 0.1 µM
MCF7; [3]
  GI50: 4.9 ± 0.4 µM
MCF10A; [4]
  GI50: 3.1 ± 0.1 µM
[1]
  antigrowth effect against cancer versus non-cancer cells (in words): higher activity against non-cancer cells than cancer cells
other
  melting point: 112 to 113 °C
MDA-MB231; [5]
  GI50: 14.9 ± 1.1 µM
MDA-MB468; [6]
  GI50: 7.8 ± 0.8 µM

## N.N.[Cl][Pt][Cl] [Cisplatin, reference compound]
184B5; SRB, 48 h incubation, 184B5 non-cancer immortalised breast cells
  GI50: 25.5 ± 0.6 µM
MCF7; SRB, 48 h incubation, MCF7 breast cancer cells
  GI50: 25.8 ± 0.7 µM
MCF10A; SRB, 48 h incubation, MCF10A non-cancer immortalised breast cells
  GI50: 51.5 ± 0.6 µM
MDA-MB231; SRB, 48 h incubation, MDA-MB231 triple-negative breast cancer cells
  GI50: 23.6 ± 0.2 µM
MDA-MB468; SRB, 48 h incubation, MDA-MB468 breast cancer cells
  GI50: 31 ± 0.3 µM

## CCN(CC)CCCC(C)Nc1ccnc2cc(Cl)ccc12 (centres unmarked) [CQ, Chloroquine, reference compound]
184B5; Homo sapiens, 184B5, 48 h
  GI50: 76.1 ± 0.2 µM
MCF7; Homo sapiens, MCF7, 48 h
  GI50: 38.4 ± 0.3 µM
MCF10A; Homo sapiens, MCF-10A, 48 h
  GI50: 81.3 ± 1.4 µM
MDA-MB231; Homo sapiens, MDA-MB-231, 48 h
  GI50: 22.5 ± 1.4 µM
MDA-MB468; Homo sapiens, MDA-MB-468, 48 h
  GI50: 28.6 ± 0.2 µM
